Literature values, collected in patent publication US20050063935A1, “Adsorbent for cytokine, method of adsorptive removal, and apparatus adsorptive removal” (priority 2002, published 2005).

Settings: octanol-water system; free ligand compound before immobilization

| SMILES | log P |
| --- | --- |
| CCCCN [n-butylamine] | 0.97 |
| CCCCCCCCN [n-octylamine] | 2.90 |
